From ChEMBL document CHEMBL3813600, “Identification of a novel boronic acid as a potent, selective, and orally active hormone sensitive lipase inhibitor” (Bioorg Med Chem, 2016) come the findings set out here.

One data set has as its target T1, Hormone-sensitive lipase (Homo sapiens, UniProt Q05469).
T1 sequence (Q05469 whole entry): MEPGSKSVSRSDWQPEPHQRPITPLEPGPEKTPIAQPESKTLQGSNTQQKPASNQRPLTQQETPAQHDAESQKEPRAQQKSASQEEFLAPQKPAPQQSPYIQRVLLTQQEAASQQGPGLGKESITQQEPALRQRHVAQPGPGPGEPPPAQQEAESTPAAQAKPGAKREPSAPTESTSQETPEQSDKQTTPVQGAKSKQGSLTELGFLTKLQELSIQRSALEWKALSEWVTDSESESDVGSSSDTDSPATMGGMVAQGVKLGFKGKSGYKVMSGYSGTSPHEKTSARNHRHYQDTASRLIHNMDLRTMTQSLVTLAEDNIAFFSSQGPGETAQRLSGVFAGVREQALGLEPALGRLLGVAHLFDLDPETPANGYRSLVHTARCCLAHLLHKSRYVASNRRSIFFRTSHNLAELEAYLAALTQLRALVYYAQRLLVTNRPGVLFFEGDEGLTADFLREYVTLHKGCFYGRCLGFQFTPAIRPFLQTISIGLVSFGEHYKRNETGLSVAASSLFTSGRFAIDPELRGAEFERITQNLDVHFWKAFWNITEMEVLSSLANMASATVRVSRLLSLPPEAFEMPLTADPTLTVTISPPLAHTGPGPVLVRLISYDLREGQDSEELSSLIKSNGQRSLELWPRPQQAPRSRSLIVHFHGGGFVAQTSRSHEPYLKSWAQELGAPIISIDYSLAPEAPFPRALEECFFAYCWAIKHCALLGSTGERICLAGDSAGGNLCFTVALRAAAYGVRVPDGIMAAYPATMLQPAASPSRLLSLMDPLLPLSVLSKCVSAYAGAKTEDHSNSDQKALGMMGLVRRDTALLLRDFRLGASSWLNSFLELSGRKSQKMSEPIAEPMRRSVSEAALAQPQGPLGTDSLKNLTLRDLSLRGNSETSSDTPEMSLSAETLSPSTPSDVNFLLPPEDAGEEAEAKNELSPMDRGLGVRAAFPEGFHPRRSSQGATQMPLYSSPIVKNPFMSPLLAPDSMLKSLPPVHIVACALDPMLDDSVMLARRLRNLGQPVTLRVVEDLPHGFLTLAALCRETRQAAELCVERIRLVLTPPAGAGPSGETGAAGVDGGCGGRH
Description: Inhibition of recombinant human HSL expressed in Sf9 insect cells using PNPB as substrate measured after 5 mins by spectrophotometric method.

Data set [1] deals with Rattus norvegicus. Description: Antilipolytic activity in fasted Wistar rat assessed as reduction of plasma glycerol AUC ( 0 to 7 hrs) at 10 mg/kg, po. The class given is functional, organism-based.
For data set [2], the target named is T2, Hormone-sensitive lipase (Homo sapiens) (UniProt Q05469).
T2 sequence (whole entry): T1 sequence (Q05469 whole entry)
In words: Inhibition of recombinant human HSL expressed in Sf9 insect cells at 1 uM using PNPB as substrate measured after 5 mins by spectrophotometric method.

Data set [3] has as its target T2, Hormone-sensitive lipase (Homo sapiens). In words: Inhibition of recombinant human HSL expressed in Sf9 insect cells at 10 uM using PNPB as substrate measured after 5 mins by spectrophotometric method.
A short description of data set [4]: Half life in rat plasma at 3 mg/kg, po by LC-MS/MS analysis. Format: ADME, organism-based.
The target in data set [5] is T2, Hormone-sensitive lipase (Homo sapiens). In words: Mixed-type inhibition of recombinant human HSL expressed in Sf9 insect cells using PNPB as substrate measured after 5 mins by Lineweaver-Burk plot analysis.
Data set [6] addresses Acetylcholinesterase (Homo sapiens) (UniProt P22303). In words: Inhibition of AChE (unknown origin) at >50 uM preincubated for 10 mins followed by addition of acetylthiocholine iodide as substrate measured after 15 mins by spectrophotometric method.
For data set [7], the target named is Cholinesterase (Homo sapiens) (UniProt P06276). In words: Inhibition of BChE (unknown origin) at >50 uM preincubated for 10 mins followed by addition of S-butyrylthiocholine iodide as substrate measured after 15 mins by spectrophotometric method.
Data set [8] relates to Rattus norvegicus. In words: Antilipolytic activity in orally dosed fasted Wistar rat assessed as reduction of plasma glycerol AUC ( 0 to 7 hrs). Format: functional, organism-based.
Data set [9] in a line: Cmax in rat at 3 mg/kg, po by LC-MS/MS analysis. The class given is ADME, organism-based. On the set-up: dose 3 mg/kg, route oral. The following applies: in vivo.
The nature of data set [10]: AUC (0 to 7 hrs) in rat at 3 mg/kg, po by LC-MS/MS analysis. Format: ADME, organism-based. On the set-up: time < 7 hr, dose 3 mg/kg, route oral. As to conditions: in vivo.
Data set [11] relates to Rattus norvegicus. Description: Antilipolytic activity in fasted Wistar rat assessed as reduction of plasma glycerol AUC ( 0 to 7 hrs) at 3 mg/kg, po. Format: functional. On the set-up: scale not given: the % may be the effect or the level left.

pIC50: −log10 of the molar value. Calls of active or inactive are those of the source. The calls are words filed in the database; no cut-off is given here.

Chain of Cholinesterase (Homo sapiens) (P06276 whole entry): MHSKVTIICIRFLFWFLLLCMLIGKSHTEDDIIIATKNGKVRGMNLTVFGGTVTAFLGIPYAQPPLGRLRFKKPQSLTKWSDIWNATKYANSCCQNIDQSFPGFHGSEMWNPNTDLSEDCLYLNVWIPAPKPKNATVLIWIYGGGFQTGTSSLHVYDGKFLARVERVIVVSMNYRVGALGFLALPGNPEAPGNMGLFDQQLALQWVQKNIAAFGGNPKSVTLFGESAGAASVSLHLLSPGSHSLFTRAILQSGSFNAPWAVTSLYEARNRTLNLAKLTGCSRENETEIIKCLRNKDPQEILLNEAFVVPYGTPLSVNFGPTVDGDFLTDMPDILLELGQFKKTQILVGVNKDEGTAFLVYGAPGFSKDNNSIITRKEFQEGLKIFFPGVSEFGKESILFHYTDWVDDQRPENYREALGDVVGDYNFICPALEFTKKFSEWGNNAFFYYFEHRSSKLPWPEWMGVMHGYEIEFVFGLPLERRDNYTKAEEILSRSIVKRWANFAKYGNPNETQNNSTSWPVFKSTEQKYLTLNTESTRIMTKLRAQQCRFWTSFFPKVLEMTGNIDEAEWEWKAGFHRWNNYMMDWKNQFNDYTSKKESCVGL
Chain of Acetylcholinesterase (Homo sapiens) (P22303 whole entry): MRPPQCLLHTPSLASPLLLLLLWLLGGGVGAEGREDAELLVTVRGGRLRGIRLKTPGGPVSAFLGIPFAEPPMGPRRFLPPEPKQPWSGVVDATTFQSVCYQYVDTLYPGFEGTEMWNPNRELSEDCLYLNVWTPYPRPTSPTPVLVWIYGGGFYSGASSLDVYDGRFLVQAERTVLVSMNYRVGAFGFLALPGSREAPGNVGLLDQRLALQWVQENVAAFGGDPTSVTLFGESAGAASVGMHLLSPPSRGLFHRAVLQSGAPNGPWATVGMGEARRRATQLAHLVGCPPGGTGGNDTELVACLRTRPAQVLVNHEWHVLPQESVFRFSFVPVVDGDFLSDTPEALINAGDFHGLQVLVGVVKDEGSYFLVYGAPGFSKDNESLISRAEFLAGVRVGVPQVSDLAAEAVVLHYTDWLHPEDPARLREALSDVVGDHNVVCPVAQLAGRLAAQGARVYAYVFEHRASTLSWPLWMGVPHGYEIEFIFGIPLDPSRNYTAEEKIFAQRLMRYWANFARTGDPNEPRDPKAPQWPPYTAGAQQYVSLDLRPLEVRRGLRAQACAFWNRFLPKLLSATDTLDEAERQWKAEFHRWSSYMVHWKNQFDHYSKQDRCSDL

By pIC50 is commonly meant the IC50 on a negative log10 scale, so that one unit is a factor of ten. For the compound `O=C(Oc1ccc(Oc2ccc(C(F)(F)F)cn2)cc1)N1CCC(O)CC1`, on Hormone-sensitive lipase, the pIC50 was 6.57. In addition, the outcome in the data set with Rattus norvegicus [1] was Active.

For orientation: inhibition means the relative decrease from the control value, in per cent. For `O=P(O)(O)c1ccccc1OCc1ccc(Oc2ccc(C(F)(F)F)cn2)cc1`, the inhibition in data set [2] is -5%. Same read-out and setting: as for `O=C(c1ccccc1OCc1ccc(Oc2ccc(C(F)(F)F)cn2)cc1)C(F)(F)F`, the figure is 1%. With `N#Cc1ccccc1OCc1ccc(Oc2ccc(C(F)(F)F)cn2)cc1`, the inhibition in data set [2] turned out to be 0%. `CC1(C)OB(c2ccc(OCc3ccc(Oc4ccc(C(F)(F)F)cn4)cc3)cc2)OC1(C)C`: the inhibition in data set [2] was -10%.

Take `O=C(Nc1ccc(Oc2ccc(C(F)(F)F)cn2)cc1)N1CCC(O)CC1`: the inhibition in data set [3] was found to be 0%. Turning to `CC1(C)OB(c2ccccc2OCc2ccc(Oc3ccc(C(F)(F)F)cn3)cc2)OC1(C)C`, the inhibition in data set [2] was found to be 81%. With `O=C(O)c1ccccc1OCc1ccc(Oc2ccc(C(F)(F)F)cn2)cc1`, the inhibition in data set [2] is -8%.

Regarding `O=C(Cc1ccc(Oc2ccc(C(F)(F)F)cn2)cc1)N1CCC(O)CC1`, the inhibition in data set [3] turned out to be 2%. As to `OB(O)c1ccccc1OCc1ccccc1`, the negative-log IC50 (pIC50) on Hormone-sensitive lipase was 6.89. As to `CC1(C)OB(c2cccc(OCc3ccc(Oc4ccc(C(F)(F)F)cn4)cc3)c2)OC1(C)C`, in [2], the inhibition came to 59%.

The term half-life denotes the time in which the quantity being followed falls by half. A word on the Cmax: it is the highest concentration seen after dosing. For orientation: AUC(0-t) means the area under the concentration-time curve up to a stated or last time point. Consider `OB(O)c1ccccc1OCc1ccc(Oc2ccc(C(F)(F)F)cn2)cc1`, for which the pIC50 on Hormone-sensitive lipase was 8.15. Besides, the inhibition in data set [2] amounted to 89%. Besides, the half-life in data set [4] was 2.95 h. The inhibition entry in [5] is “Active”. Further, the inhibition entry in [6] and in data set [7] was “inactive” throughout. In addition, the Activity entry in the data set on Rattus norvegicus [8] was “Dose-dependent effect”; with Rattus norvegicus [11] it was 11%. For the same compound, the highest level in [9] (Cmax) was 420 ng/mL. For the same compound, the exposure AUC(0-t) at 7 h in data set [10] is 1750 ng·h/mL.
